Results on 3 molecules are retold here after patent publication US12428402B2, “Resmetirom crystal, preparation method for same, and uses thereof” (CRYSTAL PHARMACEUTICAL (SUZHOU) CO., LTD., priority 2019, dated 2025).

Each structure is given as a SMILES string. Values after ≈ are worked out from the molar mass of the structure shown. Values joined by “and” are separate entries in the source; they are usually repeats but may differ in a detail not shown here. Equal entries are not always repeated. “Also recorded” adds a separate entry of the source.

What all share (format): physicochemical
Data set [1] in a line: Kinetic solubility in SGF. As to conditions: for 1 hour Concentration: equilibrated 1 h. The method, then: When solubility test is used to predict the in vivo performance of a drug, it is critical to simulate in vivo conditions as closely as possible. SGF can be used to simulate the condition in vivo and predict the effects of eating, thus solubility in this medium is closer to that in vivo.
Approximately 5-20 mg of Form CSIV and 5-20 mg Form CSV of the present disclosure were suspended into 2.0 mL of SGF to get suspensions. After equilibrated for 1 h and 24 h, concentrations (μg/mL) of these solutions were measured by UPLC.

Data set [2] can be described thus: Hygroscicity by dynamic vapor sorption (DVS). As to conditions: for hygroscopicity class / weight gain: 25° C./80% RH; for hygroscopicity class: Chinese Pharmacopoeia definition; for weight gain: DVS; for crystalline state before and after DVS: cycle of 0-95% RH. The method, then:
Dynamic Vapor Sorption (DVS) was measured via an SMS (Surface Measurement Systems Ltd.) intrinsic DVS instrument. Typical Parameters for DVS test are as follows: • Temperature: 25° C. • Gas and flow rate: N2, 200 mL/min • RH range: 0% RH to 95% RH
Dynamic vapor sorption (DVS) analyzer was applied to test hygroscopicity of Form CSIV and Form CSV with certain amount of samples. The weight gains at each relative humidity were recorded in a cycle of 0-95% RH. […] The weight gain of Form CSV under 25° C./80% RH is 0.13%. […] The DVS curve of Form CSIV and Form CSV are shown in FIG. 9 and FIG. 10, respectively.
Description and definition of hygroscopicity (general notice 9103 drug hygroscopicity test guidelines in 2020 edition of Chinese Pharmacopoeia, test at 25° C.±1° C., 80% RH±2% RH. The definition of hygroscopicity in the 9th European Pharmacopoeia 5.11 is consistent with the Chinese Pharmacopoeia). • deliquescent: Sufficient water is absorbed to form a solution; • very hygroscopic: Increase in mass is equal to or greater than 15%; • hygroscopic: Increase in mass is less than 15% and equal to or greater than 2%; • slightly hygroscopic: Increase in mass is less than 2% and equal to or greater than 0.2%. • non hygroscopic or almost non hygroscopic: Increase in mass is less than 0.2%.

Data set [3] is described as follows: Physical and chemical stability on storage (XRPD, HPLC). The method, then: A certain amount of Form CSIV of the present disclosure was sealed up and stored under different conditions of 25° C./60% RH, 40° C./75% RH, and 60° C./75% RH. Crystalline form and chemical purity were checked by XRPD and HPLC, respectively.
A certain amount of Form CSV of the present disclosure was stored under different conditions of 40° C./75% RH and 60° C./75% RH in open and sealed dishes. Crystalline form and chemical purity were checked by XRPD and HPLC, respectively.

A short description of data set [4]: Physical stability upon grinding (XRPD). As to conditions: ground manually for 5 minutes in a mortar. Here is the method:
Form CSV and Form I were grounded manually for 5 minutes in a mortar. Crystalline forms before and after grinding were checked by XRPD. […] Compared with Form I, Form CSV has better physical stability upon grinding.

The nature of data set [5]: Compressibility (manual tablet press, tensile strength). As to conditions: for Diameter / Hardness / Thickness: 80 mg, φ6 mm round tooling, 10 kN, 24 h at room temperature; for Diameter / Hardness / Thickness / Tensile strength: tablets 1 and 2; for Average tensile strength / Tensile strength: T=2H/πDL. Here is the method:
ENERPAC manual tablet press was used for compression. 80 mg of Form CSIV and 80 mg of Form I were weighed and added into the dies of a φ6 mm round tooling, compressed at 10 kN manually, then stored at room temperature for 24 h. Diameter (D) and thickness (L) were tested with caliper. When elastic recovery is complete, hardness (H) was tested with an intelligent tablet hardness tester. Tensile strength of the powder was calculated with the following formula: T=2H/πDL. Under a certain force, the greater the tensile strength, the better the compressibility.

Setting [6] is: 40° C./75% RH (open), one month.
The mark [7] stands for this setting: 40° C./75% RH (sealed), one month.
The mark [8] stands for this setting: 60° C./75% RH (sealed), one week.

`CC(C)c1cc(Oc2c(Cl)cc(-n3nc(C#N)c(=O)[nH]c3=O)cc2Cl)n[nH]c1=O` [Form CSV, 2-(3,5-dichloro-4-((5-isopropyl-6-oxo-1,6-dihydropyridazin-3-yl)oxy)phenyl)-3,5-dioxo-2,3,4,5-tetrahydro-1,2,4-triazine-6-carbonitrile]: in data set [1] (UPLC), the “1 hour Concentration” value turned out to be 7.8 µg/mL. Besides, the figures for the “solubility relative to that of Form I” value in data set [1] (equilibrated 1 hour) and in data set [1] (equilibrated 24 hours) were 7.1 times and 8.7 times, respectively. The “24 hours Concentration” value in data set [1] (equilibrated 24 h, UPLC) worked out at 9.6 µg/mL. For the same molecule, the hygroscopicity class entry in data set [2] is “non hygroscopic or almost non-hygroscopic”. In data set [2], this molecule showed a weight gain of 0.13%. In data set [2], the “crystalline state before and after DVS” value is “remains unchanged before and after DVS”. For the same molecule, the Crystalline form result in data set [3] (setting [6]) is on record as “Form CSV”; in data set [3] (setting [7]), “Form CSV”; in data set [3] (60° C./75% RH (open), one week) it was “Form CSV”; in data set [3] (setting [8]), “Form CSV”; in data set [3] (Initial) it was “Form CSV”. The Purity in data set [3] (setting [6]) is recorded as 99.81%; in data set [3] (setting [7]) it was 99.85%; in data set [3] (60° C./75% RH (open), one week), 99.86%; in data set [3] (setting [8]), 99.87%. Besides, the “chemical purity during storage” value in data set [3] (40° C./75% RH one month, 60° C./75% RH one week) is listed as “above 99.8%”. Also, the “time for which the form is stable” value in data set [3] (40° C./75% RH open and sealed dishes, in words) is reported as “at least one months”. Moreover, the “time for which crystalline state doesn't change” value in data set [3] (40° C./75% RH sealed, in words) was “at least one month”. Moreover, the “time for which the form is stable / crystalline form doesn't change” value in data set [3] (60° C./75% RH open and sealed, in words) is recorded as “at least one week”. The “crystalline state after grinding” value in data set [4] was “does not change before and after grinding; also recorded: doesn't change after grinding”.

As for `CC(C)c1cc(Oc2c(Cl)cc(-n3nc(C#N)c(=O)[nH]c3=O)cc2Cl)n[nH]c1=O` [Form CSIV, 2-(3,5-dichloro-4-((5-isopropyl-6-oxo-1,6-dihydropyridazin-3-yl)oxy)phenyl)-3,5-dioxo-2,3,4,5-tetrahydro-1,2,4-triazine-6-carbonitrile], in data set [5], the Diameter was 6.03 mm and 6.04 mm; the Hardness is 28.3 kg and 27.7 kg; the Thickness amounted to 2.12 mm. For the same molecule, in data set [5] (compressed at 10 kN), the Average tensile strength came to 1.40 MPa; the Tensile strength is 1.41 MPa and 1.38 MPa. Further, in data set [5] (compressed at 10 kN, XRPD), the “crystalline state before and after tableting” value is “remains unchanged before and after tableting”. Moreover, in data set [1] (UPLC), the “1 hour Concentration” value is 11.7 µg/mL. Further, the “solubility relative to that of Form I” value in data set [1] (equilibrated 1 hour) came to 10.6 times. In addition, in data set [1] (equilibrated 24 hours), the “solubility relative to that of Form I” value was found to be 5.0 times. Moreover, in data set [1] (simulated gastric fluid, thermodynamic from solid, equilibrated 24 h, UPLC, read-out: 24 hours Concentration), the solubility thermodynamic at 24 h was 5.5 µg/mL (≈ 12.6 µM). Moreover, in data set [2], the hygroscopicity class result is “slightly hygroscopic (Increase in mass is less than 2% and equal to or greater than 0.2%)”; the weight gain is 0.58%; the “crystalline state before and after DVS” value was “remains unchanged before and after DVS”. Moreover, the “time for which the form is stable / crystalline state doesn't change” value in data set [3] (25° C./60% RH sealed) is on record as “at least 6 months”. Also, the Crystalline form entry in data set [3] (25° C./60% RH sealed, 6 months) is reported as “Form CSIV”. The “time for which the form is stable / crystalline state doesn't change” value in data set [3] (40° C./75% RH sealed) is “at least 6 months”. Also, in data set [3] (40° C./75% RH sealed, 6 months), the Crystalline form entry is “Form CSIV” and the Purity came out at 99.76%. In data set [3] (60° C./75% RH sealed), the “time for which crystalline state doesn't change” value is “at least 1 month”. Besides, the “time for which the form is stable” value in data set [3] (60° C./75% RH sealed, in words) is listed as “at least one month”. In data set [3] (60° C./75% RH sealed, one month), the Crystalline form entry is “Form CSIV”. Moreover, in data set [3] (Initial), the Crystalline form result is listed as “Form CSIV” and the Purity worked out at 99.80%.

With `CC(C)c1cc(Oc2c(Cl)cc(-n3nc(C#N)c(=O)[nH]c3=O)cc2Cl)n[nH]c1=O` [Form I, 2-(3,5-dichloro-4-((5-isopropyl-6-oxo-1,6-dihydropyridazin-3-yl)oxy)phenyl)-3,5-dioxo-2,3,4,5-tetrahydro-1,2,4-triazine-6-carbonitrile, reference compound], in data set [5], the Diameter was 6.01 mm and 6.11 mm; the Hardness was 8.7 kg and 7.9 kg; the Thickness is 2.11 mm and 2.00 mm. Besides, in data set [5] (compressed at 10 kN), the Average tensile strength was determined as 0.43 MPa; the Tensile strength was 0.44 MPa and 0.41 MPa. The “crystalline state after grinding” value in data set [4] is recorded as “almost transform into amorphous after grinding; also recorded: transforms into amorphous after grinding”.
